Source: US20100130604A1, “USE OF ROSMARINIC ACID IN MANUFACTURE OF MEDICAMENTS FOR TREATING OR PREVENTING HEPATIC AND RENAL DISEASES” (SHANGDONG LUYE NATURAL DRUG RESEARCH AND DEVELOPMENT CO., …, priority 2006, published 2010)
Marks after values point to notes of the source that are not given here.

Experiments:
CTGF = test: Western blot of intracellular CTGF protein expression in PTECs; format: cell-based; conditions: for CTGF expression: 72 h, relative OD of band
Experimental: Western blot method was used to detect intracellular CTGF expression. PTEC cells at logarithmic phase were seeded to 96-well plate at the density of 1×10^5/mL. The medium was replaced with serum-free DMEM 24 hours later and the cell culture was cultured statically for 24 hours. Treat the wells as mentioned above. 72 hours later, cellular protein was extracted from the cell lysate according to modified Lowry method (Peterson G L. A simplification of the protein assay method of Lowry et al, which is more generally applicable. Anal Biochem, 1977, 83:346). 75 μg of total protein was loaded on each lane and all lanes were subject to 12% SDS-PAGE before the protein was transferred onto nitrocellulose membrane. Dye with Ponceau S (Sigma) to confirm transference and mark relative molecular weight standards. The membrane was then blocked in 5% solution of skimmed milk powder in TBST for 1 hour at room temperature. After washing, multiclonal goat-anti-rat anti-CTGF antibody (1:500, from Santa Cruz Co. Ltd.) was added and incubated overnight at 4° C. Then HRP-labeled anti-goat IgG secondary antibody (1:2 500, from Santa Cruz Co. Ltd.) was added and incubated at 37° C. for 1 hour. After rinsing, develop with 3,3-diaminobenzidine (DAB). Relative OD values of each band were analysed and the data are presented as χ±s. SPSS software was used in statistical analysis. ANOVA was applied for multi-group comparison.

hepatofibrosis in rats = test: CCl4-induced hepatofibrosis in chronic hepatitis in rats; format: in vivo, Sprague Dawley rats; conditions: for T (Rank-sum test of fibrosis) / fiber proliferation level 0 (number of rats) / fiber proliferation level I (number of rats) / fiber proliferation level II (number of rats) / fiber proliferation level III (number of rats) / fiber proliferation level IV (number of rats) / HYP / HA / LN / PCIII: 6 weeks; for fiber proliferation level 0 (number of rats) / fiber proliferation level I (number of rats) / fiber proliferation level II (number of rats) / fiber proliferation level III (number of rats) / fiber proliferation level IV (number of rats): n=10; for HYP: hepatic; for HA / LN / PCIII: serum
Experimental: 120 rats were randomly divided into 12 groups, with 10 in each group, namely, a normal control group, a model group, […] Apart from the normal control group, all rats were s.c. injected 0.3 ml of 40% solution of CC14 in oil per 100 g of body weight once every 3 days for 6 weeks. Animals in the normal control group were s.c. injected 0.3 ml/100 g body weight of oil vehicle following the same schedule as the experimental groups. First dose was doubled for all animals. Six weeks later, drugs were continuously administered to animals in each group for 6 weeks. After the administration was completed, all animals were anaesthetised with i.p. injection of 20% ethyl carbamate solution (Beijing Tongxian District Yucai Fine Chemicals). Blood was collected from abdominal aorta. Hepatic lobule tissue was removed, part of which was fixed with 10% neutral foinialin solution and made into wax blocks within 24-48 hours. […] Serum HA, LN, Pc III levels and hepatic HYP level were determined according to the respective kit instructions.

O=C(/C=C/c1ccc(O)c(O)c1)O[C@H](Cc1ccc(O)c(O)c1)C(=O)O [RA, R(+)2-{[3-(3,4-dihydroxylphenyl-(oxo-2-propenyl)oxy]3,4-dihydroxylphenylpropionic acid]}]
intracellular CTGF expression compared with the HG group (CTGF; 10 mg/L and 50 mg/L RA): significantly down-regulated
CTGF expression (CTGF; HG + 10 mg/L RA): 5244 ± 106
CTGF expression (CTGF; HG + 50 mg/L RA): 5345 ± 95
T (Rank-sum test of fibrosis) (hepatofibrosis in rats; RA i.v. 2.5 mg/kg): 82*
fiber proliferation level 0 (number of rats) (hepatofibrosis in rats; RA i.v. 2.5 mg/kg): 0
fiber proliferation level I (number of rats) (hepatofibrosis in rats; RA i.v. 2.5 mg/kg): 1
fiber proliferation level II (number of rats) (hepatofibrosis in rats; RA i.v. 2.5 mg/kg): 2
fiber proliferation level III (number of rats) (hepatofibrosis in rats; RA i.v. 2.5 mg/kg): 3
fiber proliferation level IV (number of rats) (hepatofibrosis in rats; RA i.v. 2.5 mg/kg): 4
T (Rank-sum test of fibrosis) (hepatofibrosis in rats; RA i.v. 5 mg/kg): 81.5*
fiber proliferation level 0 (number of rats) (hepatofibrosis in rats; RA i.v. 5 mg/kg): 0
fiber proliferation level I (number of rats) (hepatofibrosis in rats; RA i.v. 5 mg/kg): 1
fiber proliferation level II (number of rats) (hepatofibrosis in rats; RA i.v. 5 mg/kg): 2
fiber proliferation level III (number of rats) (hepatofibrosis in rats; RA i.v. 5 mg/kg): 6
fiber proliferation level IV (number of rats) (hepatofibrosis in rats; RA i.v. 5 mg/kg): 1
T (Rank-sum test of fibrosis) (hepatofibrosis in rats; RA i.v. 25 mg/kg): 76*
fiber proliferation level 0 (number of rats) (hepatofibrosis in rats; RA i.v. 25 mg/kg): 0
fiber proliferation level I (number of rats) (hepatofibrosis in rats; RA i.v. 25 mg/kg): 2
fiber proliferation level II (number of rats) (hepatofibrosis in rats; RA i.v. 25 mg/kg): 3
fiber proliferation level III (number of rats) (hepatofibrosis in rats; RA i.v. 25 mg/kg): 4
fiber proliferation level IV (number of rats) (hepatofibrosis in rats; RA i.v. 25 mg/kg): 1
T (Rank-sum test of fibrosis) (hepatofibrosis in rats; RA i.v. 75 mg/kg): 71**
fiber proliferation level 0 (number of rats) (hepatofibrosis in rats; RA i.v. 75 mg/kg): 0
fiber proliferation level I (number of rats) (hepatofibrosis in rats; RA i.v. 75 mg/kg): 3
fiber proliferation level II (number of rats) (hepatofibrosis in rats; RA i.v. 75 mg/kg): 2
fiber proliferation level III (number of rats) (hepatofibrosis in rats; RA i.v. 75 mg/kg): 5
fiber proliferation level IV (number of rats) (hepatofibrosis in rats; RA i.v. 75 mg/kg): 0
T (Rank-sum test of fibrosis) (hepatofibrosis in rats; RA i.v. 150 mg/kg): 66**
fiber proliferation level 0 (number of rats) (hepatofibrosis in rats; RA i.v. 150 mg/kg): 0
fiber proliferation level I (number of rats) (hepatofibrosis in rats; RA i.v. 150 mg/kg): 3
fiber proliferation level II (number of rats) (hepatofibrosis in rats; RA i.v. 150 mg/kg): 4
fiber proliferation level III (number of rats) (hepatofibrosis in rats; RA i.v. 150 mg/kg): 3
fiber proliferation level IV (number of rats) (hepatofibrosis in rats; RA i.v. 150 mg/kg): 0
T (Rank-sum test of fibrosis) (hepatofibrosis in rats; RA p.o. 2.5 mg/kg): 95
fiber proliferation level 0 (number of rats) (hepatofibrosis in rats; RA p.o. 2.5 mg/kg): 0
fiber proliferation level I (number of rats) (hepatofibrosis in rats; RA p.o. 2.5 mg/kg): 1
fiber proliferation level II (number of rats) (hepatofibrosis in rats; RA p.o. 2.5 mg/kg): 2
fiber proliferation level III (number of rats) (hepatofibrosis in rats; RA p.o. 2.5 mg/kg): 3
fiber proliferation level IV (number of rats) (hepatofibrosis in rats; RA p.o. 2.5 mg/kg): 4
T (Rank-sum test of fibrosis) (hepatofibrosis in rats; RA p.o. 5 mg/kg): 77*
fiber proliferation level 0 (number of rats) (hepatofibrosis in rats; RA p.o. 5 mg/kg): 0
fiber proliferation level I (number of rats) (hepatofibrosis in rats; RA p.o. 5 mg/kg): 1
fiber proliferation level II (number of rats) (hepatofibrosis in rats; RA p.o. 5 mg/kg): 2
fiber proliferation level III (number of rats) (hepatofibrosis in rats; RA p.o. 5 mg/kg): 7
fiber proliferation level IV (number of rats) (hepatofibrosis in rats; RA p.o. 5 mg/kg): 0
T (Rank-sum test of fibrosis) (hepatofibrosis in rats; RA p.o. 25 mg/kg): 71**
fiber proliferation level 0 (number of rats) (hepatofibrosis in rats; RA p.o. 25 mg/kg): 0
fiber proliferation level I (number of rats) (hepatofibrosis in rats; RA p.o. 25 mg/kg): 3
fiber proliferation level II (number of rats) (hepatofibrosis in rats; RA p.o. 25 mg/kg): 2
fiber proliferation level III (number of rats) (hepatofibrosis in rats; RA p.o. 25 mg/kg): 5
fiber proliferation level IV (number of rats) (hepatofibrosis in rats; RA p.o. 25 mg/kg): 0
T (Rank-sum test of fibrosis) (hepatofibrosis in rats; RA p.o. 150 mg/kg): 66**
fiber proliferation level 0 (number of rats) (hepatofibrosis in rats; RA p.o. 150 mg/kg): 0
fiber proliferation level I (number of rats) (hepatofibrosis in rats; RA p.o. 150 mg/kg): 3
fiber proliferation level II (number of rats) (hepatofibrosis in rats; RA p.o. 150 mg/kg): 4
fiber proliferation level III (number of rats) (hepatofibrosis in rats; RA p.o. 150 mg/kg): 3
fiber proliferation level IV (number of rats) (hepatofibrosis in rats; RA p.o. 150 mg/kg): 0
T (Rank-sum test of fibrosis) (hepatofibrosis in rats; RA p.o. 300 mg/kg): 66**
fiber proliferation level 0 (number of rats) (hepatofibrosis in rats; RA p.o. 300 mg/kg): 0
fiber proliferation level I (number of rats) (hepatofibrosis in rats; RA p.o. 300 mg/kg): 2
fiber proliferation level II (number of rats) (hepatofibrosis in rats; RA p.o. 300 mg/kg): 5
fiber proliferation level III (number of rats) (hepatofibrosis in rats; RA p.o. 300 mg/kg): 2
fiber proliferation level IV (number of rats) (hepatofibrosis in rats; RA p.o. 300 mg/kg): 1
liver, electronic microscopic examination (hepatofibrosis in rats; RA treated groups): hepatocyte damages were alleviated
liver, light microscopic examination (HE, VG collagen staining) (hepatofibrosis in rats; RA treated groups): less fiber connective tissue hyperplasia, thinner fibrous septa and less pseudolobule formation
liver fibrosis, pathology examination (hepatofibrosis in rats; all RA treated groups vs model group): less severe fibrosis
HYP (hepatofibrosis in rats; i.v. 2.5 mg/kg): 1657 ± 124 µg/L
HYP (hepatofibrosis in rats; i.v. 5 mg/kg): 1630 ± 110 µg/L
HYP (hepatofibrosis in rats; i.v. 25 mg/kg): 1578 ± 113 µg/L
HYP (hepatofibrosis in rats; i.v. 75 mg/kg): 1278 ± 121 µg/L
HYP (hepatofibrosis in rats; i.v. 150 mg/kg): 1217 ± 143 µg/L
HYP (hepatofibrosis in rats; p.o. 2.5 mg/kg): 1724 ± 121 µg/L
HYP (hepatofibrosis in rats; p.o. 5 mg/kg): 1614 ± 121 µg/L
HYP (hepatofibrosis in rats; p.o. 25 mg/kg): 1535 ± 125 µg/L
HYP (hepatofibrosis in rats; p.o. 150 mg/kg): 1299 ± 153 µg/L
HYP (hepatofibrosis in rats; p.o. 300 mg/kg): 1250 ± 174 µg/L
fibrosis (Rank-sum test) (hepatofibrosis in rats; i.v. 2.5, 5, 25, 75, 150 mg/kg, p.o. 5, 25, 150, 300 mg/kg): can significantly reduce fibrosis
HA, LN, Pc III and HYP levels vs model group (hepatofibrosis in rats; i.v. 2.5, 5, 25, 75, 150 mg/kg, p.o. 5, 25, 150, 300 mg/kg, p<0.05 or 0.01): can all significantly reduce HA, LN, Pc III, and HYP levels
HA (hepatofibrosis in rats; i.v. 2.5 mg/kg): 111.2 ± 24.1 µg/L
LN (hepatofibrosis in rats; i.v. 2.5 mg/kg): 72.6 ± 19.0 µg/L
PCIII (hepatofibrosis in rats; i.v. 2.5 mg/kg): 36.2 ± 7.8 µg/L
HA (hepatofibrosis in rats; i.v. 5 mg/kg): 106.3 ± 23.4 µg/L
LN (hepatofibrosis in rats; i.v. 5 mg/kg): 68.3 ± 17.9 µg/L
PCIII (hepatofibrosis in rats; i.v. 5 mg/kg): 34.2 ± 7.6 µg/L
HA (hepatofibrosis in rats; i.v. 25 mg/kg): 97.5 ± 23.6 µg/L
LN (hepatofibrosis in rats; i.v. 25 mg/kg): 62.0 ± 20.0 µg/L
PCIII (hepatofibrosis in rats; i.v. 25 mg/kg): 31.4 ± 7.8 µg/L
HA (hepatofibrosis in rats; i.v. 75 mg/kg): 77.9 ± 20.7 µg/L
LN (hepatofibrosis in rats; i.v. 75 mg/kg): 57.6 ± 16.8 µg/L
PCIII (hepatofibrosis in rats; i.v. 75 mg/kg): 26.5 ± 9.1 µg/L
HA (hepatofibrosis in rats; i.v. 150 mg/kg): 74.6 ± 18.9 µg/L
LN (hepatofibrosis in rats; i.v. 150 mg/kg): 55.3 ± 14.6 µg/L
PCIII (hepatofibrosis in rats; i.v. 150 mg/kg): 25.7 ± 7.8 µg/L
HA (hepatofibrosis in rats; p.o. 2.5 mg/kg): 113.8 ± 24.8 µg/L
LN (hepatofibrosis in rats; p.o. 2.5 mg/kg): 79.1 ± 19.4 µg/L
PCIII (hepatofibrosis in rats; p.o. 2.5 mg/kg): 38.0 ± 7.5 µg/L
HA (hepatofibrosis in rats; p.o. 5 mg/kg): 104.3 ± 26.4 µg/L
LN (hepatofibrosis in rats; p.o. 5 mg/kg): 69.3 ± 16.9 µg/L
PCIII (hepatofibrosis in rats; p.o. 5 mg/kg): 33.7 ± 7.3 µg/L
HA (hepatofibrosis in rats; p.o. 25 mg/kg): 97.0 ± 24.6 µg/L
LN (hepatofibrosis in rats; p.o. 25 mg/kg): 61.0 ± 20.6 µg/L
PCIII (hepatofibrosis in rats; p.o. 25 mg/kg): 31.6 ± 7.2 µg/L
HA (hepatofibrosis in rats; p.o. 150 mg/kg): 84.9 ± 20.5 µg/L
LN (hepatofibrosis in rats; p.o. 150 mg/kg): 59.6 ± 16.8 µg/L
PCIII (hepatofibrosis in rats; p.o. 150 mg/kg): 27.5 ± 9.6 µg/L
HA (hepatofibrosis in rats; p.o. 300 mg/kg): 80.7 ± 18.6 µg/L
LN (hepatofibrosis in rats; p.o. 300 mg/kg): 57.3 ± 18.6 µg/L
PCIII (hepatofibrosis in rats; p.o. 300 mg/kg): 26.9 ± 10.5 µg/L
